Experimental data reported in patent US9840506B2, “Crystal of doripenem, and preparation method therefor” (JW PHARMACEUTICAL CORPORATION, priority 2014, dated 2017).
≈ marks a conversion by molar mass, not a printed value. Like-named read-outs stand apart in the source and are kept apart here.

Key:
Format in all cases: physicochemical
[1] = Solubility of doripenem crystal in water
Method: The solubility of the Type VI doripenem anhydride crystal of Example 3 according to the present invention was measured and compared with that of the Type IV doripenem of Comparative Example 9.
50 mg of each of the Type VI doripenem anhydride crystal of Example 3 and the Type IV doripenem of Comparative Example 9 was added with water until the doripenem was completely dissolved, and the solubility thereof was measured. Meanwhile, 10 mL of water was added with the Type VI doripenem anhydride crystal of Example 3 and the Type IV doripenem of Comparative Example 9 until the doripenem was completely dissolved, and the solubility thereof was measured.

[2] = Stability: purity after standing at 60° C. for 3 weeks
Method: In addition, the Type VI doripenem anhydride crystal according to the present invention and the Type IV doripenem were allowed to stand at 60° C. for 3 weeks, and the purity thereof was measured to evaluate the stability.

[3] = Stability: max. amount of impurities after standing at 60±5° C. for 3 weeks
Method: In addition, the Type VII doripenem anhydride crystal of Example 7 according to the present invention and the Type IV doripenem of Comparative Example 9 were allowed to stand at 60±5° C. for 3 weeks, and the purity thereof was measured to evaluate the stability.

[4] = TGA loss
Method: Based on the results of TGA, about 4.8% loss occurred in the Type IV doripenem of Comparative Example 9 (FIG. 8) and about 0.46% loss occurred in the Type VI doripenem anhydride crystal of Example 3 according to the present invention (FIG. 7). This means that the novel doripenem crystal, prepared through the method of the present invention, is an anhydride. Furthermore, the water content of the doripenem anhydride crystal according to the present invention was measured and found to be less than about 2%.

[5] = DSC, decomposition temperature / stability at high temperature
Method: When the Type VI doripenem anhydride crystal of Example 3 according to the present invention and the conventional Type IV doripenem were analyzed through differential scanning calorimetry (DSC), the decomposition temperature of the Type VI doripenem anhydride crystal was higher than that of the Type IV doripenem (FIG. 6).
In addition, the decomposition temperature of the Type VII doripenem anhydride crystal of Example 7 according to the present invention was higher than that of the Type IV doripenem hydrate (FIG. 11).

[6] = Measurement of water content
Method: The doripenem anhydride crystals of Examples 3 and 7 according to the present invention and the Type IV doripenem hydrate of Comparative Example 9 were measured for water content.

[7] = 2 weeks, listed as Comp. Example 9
[8] = 3 weeks, listed as Comp. Example 9

C[C@@H](O)[C@H]1C(=O)N2C(C(=O)O)=C(S[C@@H]3CN[C@H](CNS(N)(=O)=O)C3)[C@H](C)[C@H]12 [Comparative Example 9, doripenem]
solubility ([1]; at 22° C.): 20 mg/mL (≈ 47.6 mM) | Purity (%) ([2]; 1 week, listed as Comp. Example 9): 99.0% | Purity (%) [2, 7]: 98.2% | Purity (%) [2, 8]: 97.3% | decrease of purity over time ([2]; 3 weeks, listed as Type IV doripenem): 2.56% | Purity (%) ([2]; Initial, listed as Comp. Example 9): 99.8% | Max. Amount of impurities (%) ([3]; 1 week): 0.08% | Max. Amount of impurities (%) [3, 7]: 0.23% | increase of maximum amount of impurities over time ([3]; 3 weeks): 0.22% | Max. Amount of impurities (%) [3, 8]: 0.28% | Max. Amount of impurities (%) ([3]; Initial): 0.06% | loss in TGA [4]: about 4.8%

C[C@@H](O)[C@H]1C(=O)N2C(C(=O)O)=C(S[C@@H]3CN[C@H](CNS(N)(=O)=O)C3)[C@H](C)[C@H]12 [Example 3, doripenem]
solubility ([1]; 22 °C, thermodynamic from solid, at 20 to 25° C., read-out: solubility): 55 to 65 mg/mL (≈ 131 to 155 mM) | Purity (%) ([2]; 1 week): 99.4% | Purity (%) ([2]; 2 weeks): 98.8% | Purity (%) ([2]; 3 weeks): 98.7% | decrease of purity over time ([2]; 3 weeks): less than 1% | Purity (%) ([2]; Initial): 99.6% | stability at high temperature (DSC decomposition temperature) compared to Type IV doripenem hydrate [5]: superior stability at high temperature | Water content ([6]; listed as Type VI doripenem anhydride crystal): less than 2% | loss in TGA [4]: about 0.46%

C[C@@H](O)[C@H]1C(=O)N2C(C(=O)O)=C(S[C@@H]3CN[C@H](CNS(N)(=O)=O)C3)[C@H](C)[C@H]12 [Example 7, doripenem]
solubility ([1]; 22 °C, thermodynamic from solid, measured in the same manner as for Example 3, read-out: solubility): 30 to 35 mg/mL (≈ 71.3 to 83.2 mM) | Max. Amount of impurities (%) ([3]; 1 week): 0.08% | Max. Amount of impurities (%) ([3]; 2 weeks): 0.08% | Max. Amount of impurities (%) ([3]; 3 weeks): 0.08% | increase of maximum amount of impurities over time ([3]; 3 weeks): 0.02% | Max. Amount of impurities (%) ([3]; Initial): 0.06% | stability at high temperature (DSC decomposition temperature) compared to Type IV doripenem hydrate [5]: superior stability at high temperature | Water content ([6]; listed as Type VII doripenem anhydride crystal): less than 2%
